The source made the active and inactive calls. The calls are words filed in the database; no cut-off is given here.
Experiments:
NB-4 [1] = assay: Cytotoxicity against human NB4 cells after 24 hrs by MTT assay; type: functional, cell-based; settings: NB-4, 24 h
HL-60 = assay: Cytotoxicity against human HL60 cells after 24 hrs by MTT assay; type: functional, cell-based; settings: HL-60, 24 h
SGC-7901 = assay: Cytotoxicity against human SGC7901 cells after 24 hrs by MTT assay; type: functional, cell-based; settings: SGC-7901, 24 h
HEK293 = assay: Cytotoxicity against HEK293 cells after 24 hrs by MTT assay; type: cell-based; settings: Homo sapiens, HEK293, 24 h
HeLa = assay: Cytotoxicity against human HeLa cells after 48 hrs by MTT assay; type: functional, cell-based
MCF7 = assay: Cytotoxicity against human MCF7 cells after 48 hrs by MTT assay; type: functional, cell-based; settings: MCF7, 48 h
NB-4 [2] = assay: Induction of mitochondrial membrane potential loss in human NB4 cells at 0.6 uM after 6 hrs by JC1 staining based flow cytometry (reference value: 27.7%); type: functional
NB-4 [3] = assay: Induction of ROS generation in human NB4 cells at 0.6 uM after 1 to 6 hrs by DCFH-DA staining based flow cytometry; type: functional, cell-based
NB-4 [4] = assay: Cytotoxicity against human NB4 cells assessed as reduction in cell viability up to 2.4 uM up to 8 hrs by MTT assay; type: functional, cell-based
NB-4 [5] = assay: Cytotoxicity against human NB4 cells assessed as reduction in cell viability at 1.2 uM after 24 hrs in presence of PDHC-E2 co-enzyme LA by trypan blue assay; type: functional, cell-based
NB-4 [6] = assay: Cytotoxicity against human NB4 cells assessed as reduction in cell viability at 1 to 1.2 uM after 24 hrs in presence of DTT by trypan blue assay; type: functional, cell-based
NB-4 [7] = assay: Cytotoxicity against human NB4 cells assessed as reduction in cell viability at 1 to 1.2 uM after 24 hrs in presence of DMSA by trypan blue assay; type: functional, cell-based
Rattus norvegicus [8] = species on record: Rattus norvegicus; assay: Induction of mitochondrial membrane potential loss in isolated Wistar rat mitochondria assessed as activity recovery phase rate constant at 50 uM using pyruvate as substrate up to 3 hrs by microcalorimetry; type: functional
Rattus norvegicus [9] = species on record: Rattus norvegicus; assay: Induction of mitochondrial membrane potential loss in isolated Wistar rat mitochondria assessed as activity recovery phase rate constant at 100 uM using pyruvate as substrate up to 3 hrs by microcalorimetry; type: functional
Rattus norvegicus [10] = species on record: Rattus norvegicus; assay: Induction of mitochondrial membrane potential loss in isolated Wistar rat mitochondria assessed as activity recovery phase rate constant at 25 uM using pyruvate as substrate up to 3 hrs by microcalorimetry (reference value: 5.15 to 7.33 10^-3/min); type: functional
Rattus norvegicus [11] = species on record: Rattus norvegicus; assay: Induction of mitochondrial membrane potential loss in isolated Wistar rat mitochondria assessed as stationary increase phase rate constant at 25 uM using pyruvate as substrate up to 3 hrs by microcalorimetry (reference value: 1 to 1.18 10^-3/min); type: functional
Rattus norvegicus [12] = species on record: Rattus norvegicus; assay: Induction of mitochondrial membrane potential loss in isolated Wistar rat mitochondria assessed as decline phase rate constant at 50 uM using pyruvate as substrate up to 3 hrs by microcalorimetry; type: functional
Rattus norvegicus [13] = species on record: Rattus norvegicus; assay: Induction of mitochondrial membrane potential loss in isolated Wistar rat mitochondria assessed as maximum power output at 50 uM using pyruvate as substrate up to 3 hrs by microcalorimetry; type: functional
Rattus norvegicus [14] = species on record: Rattus norvegicus; assay: Induction of mitochondrial membrane potential loss in isolated Wistar rat mitochondria assessed as maximum power output at 100 uM using pyruvate as substrate up to 3 hrs by microcalorimetry; type: functional
Rattus norvegicus [15] = species on record: Rattus norvegicus; assay: Induction of mitochondrial membrane potential loss in isolated Wistar rat mitochondria assessed as maximum power output at 25 uM using pyruvate as substrate up to 3 hrs by microcalorimetry (reference value: 141.64 to 153.92 W); type: functional
Rattus norvegicus [16] = species on record: Rattus norvegicus; assay: Induction of mitochondrial membrane potential loss in isolated Wistar rat mitochondria assessed as maximum power output time at 100 uM using pyruvate as substrate up to 3 hrs by microcalorimetry; type: functional
Rattus norvegicus [17] = species on record: Rattus norvegicus; assay: Induction of mitochondrial membrane potential loss in isolated Wistar rat mitochondria assessed as maximum power output time at 25 uM using pyruvate as substrate up to 3 hrs by microcalorimetry (reference value: 45.07 to 49.89 hrs); type: functional
Rattus norvegicus [18] = species on record: Rattus norvegicus; assay: Induction of mitochondrial membrane potential loss in isolated Wistar rat mitochondria assessed as total heat output at 50 uM using pyruvate as substrate up to 3 hrs by microcalorimetry; type: functional
Rattus norvegicus [19] = species on record: Rattus norvegicus; assay: Induction of mitochondrial membrane potential loss in isolated Wistar rat mitochondria assessed as total heat output at 25 uM using pyruvate as substrate up to 3 hrs by microcalorimetry (reference value: 10.32 to 10.36 J); type: functional
Rattus norvegicus [20] = species on record: Rattus norvegicus; assay: Inhibition of ETC1 in isolated Wistar rat mitochondria assessed as reduction in NADH oxidation at 6 to 24 uM preincubated for 3 mins and measured after 5 mins by DB reagent based assay
Rattus norvegicus [21] = species on record: Rattus norvegicus; assay: Inhibition of ETC4 in isolated Wistar rat mitochondria assessed as decrease in cyochrome-c oxidation at 5 to 15 uM incubated for 3 to 5 mins and measured for up to 3 mins
NB-4 [22] = assay: Induction of ROS generation in human NB4 cells up to 1.2 uM up to 24 hrs by DCFH-DA staining based flow cytometry; type: functional, cell-based
NB-4 [23] = assay: Induction of decrease in intracellular total thiols level in human NB4 cells up to 1.2 uM up to 24 hrs; type: functional, cell-based
NB-4 [24] = assay: Reduction in cell viability in human NB4 cells up to 1.6 uM up to 24 hrs by MTT assay; type: functional, cell-based
Rattus norvegicus [25] = species on record: Rattus norvegicus; assay: Induction of mitochondrial swelling in isolated Wistar rat mitochondria at 30 uM in presence of cyclosporin-A; type: functional
Rattus norvegicus [26] = species on record: Rattus norvegicus; assay: Induction of mitochondrial swelling in isolated Wistar rat mitochondria at 30 uM in presence of ruthenium red; type: functional
Rattus norvegicus [27] = species on record: Rattus norvegicus; assay: Induction of inner mitochondrial membrane permeabilization in isolated Wistar rat mitochondria assessed as H+ permeabilization at 5 to 75 uM measured for 10 to 30 mins; type: functional
NB-4 [28] = assay: Induction of apoptosis in human NB4 cells assessed as decrease in cell size at 0.6 to 1.2 uM after 24 hrs by Hoechst 33342/propidium iodide staining based confocal microscopic method; type: functional
NB-4 [29] = assay: Induction of apoptosis in human NB4 cells assessed as nuclear condensation at 0.6 to 1.2 uM after 24 hrs by Hoechst 33342/propidium iodide staining based confocal microscopic method; type: functional, cell-based
NB-4 [30] = assay: Induction of apoptosis in human NB4 cells assessed as DNA fragmentation at 0.6 to 1.2 uM after 24 hrs by Hoechst 33342/propidium iodide staining based confocal microscopic method; type: functional, cell-based
NB-4 [31] = assay: Induction of apoptosis in human NB4 cells assessed as live cells after 24 hrs in presence of Z-VAD-fmk by Annexin V-FITC/propidium iodide staining based flow cytometry (reference value: 92%); type: functional
NB-4 [32] = assay: Induction of apoptosis in human NB4 cells assessed as early apoptotic cells after 24 hrs in presence of Z-VAD-fmk by Annexin V-FITC/propidium iodide staining based flow cytometry (reference value: 5%); type: functional
NB-4 [33] = assay: Induction of apoptosis in human NB4 cells assessed as live cells after 24 hrs in presence of Nec-1 by Annexin V-FITC/propidium iodide staining based flow cytometry (reference value: 92%); type: functional

Work on O=C(CC[P+](c1ccccc1)(c1ccccc1)c1ccccc1)Nc1ccc([As]2SCCCS2)cc1.[Cl-] yielded an IC50 (NB-4 [1]) of 0.65 µM, an IC50 (HL-60) of 3.58 µM and an IC50 (SGC-7901) of 4.63 µM. The IC50 (HEK293) was 4.63 µM, the IC50 (HeLa) was 3.91 µM and the IC50 (MCF7) was 1.46 µM. The Activity (NB-4 [2]) was 81.5%, the Activity (NB-4 [3]) was “inactive” and the Activity (NB-4 [4]) was “inactive”. The Activity (NB-4 [5]) was “inactive”, the Activity (NB-4 [6]) was “inactive” and the Activity (NB-4 [7]) was “inactive”. It also gave a K (Rattus norvegicus [8]) of 4.82 ×10⁻³ /min, a K (Rattus norvegicus [9]) of 3.88 ×10⁻³ /min and a K (Rattus norvegicus [10]) of 3.82 ×10⁻³ /min. The K (Rattus norvegicus [11]) was 0.72 ×10⁻³ /min, the K (Rattus norvegicus [12]) was -9.35 ×10⁻³ /min and the Activity (Rattus norvegicus [13]) was 107 W. For the same compound, the Activity (Rattus norvegicus [14]) was 112 W, the Activity (Rattus norvegicus [15]) was 152 W and the TIME (Rattus norvegicus [16]) was 51.8 h. It also gave a TIME (Rattus norvegicus [17]) of 45.4 h, an Activity (Rattus norvegicus [18]) of 10.2 J and an Activity (Rattus norvegicus [19]) of 10.8 J. The inhibition (Rattus norvegicus [20]) was “Active”, the inhibition (Rattus norvegicus [21]) was “Active” and the Activity (NB-4 [22]) was “Active”. For the same compound, the Activity (NB-4 [23]) was “Active”, the Activity (NB-4 [24]) was “Active” and the Activity (Rattus norvegicus [25]) was “inactive”. For the same compound, the Activity (Rattus norvegicus [26]) was “inactive”, the Activity (Rattus norvegicus [27]) was “Active” and the Activity (NB-4 [28]) was “Active”. The Activity (NB-4 [29]) was “Active”, the Activity (NB-4 [30]) was “Active” and the Activity (NB-4 [31]) was 81.9%. The Activity (NB-4 [32]) was 12.7% and the Activity (NB-4 [33]) was 71.2%.

Source: ChEMBL document CHEMBL4330144, “A mitochondria-targeted organic arsenical accelerates mitochondrial metabolic disorder and function injury” (Bioorg Med Chem, 2019)
